From patent US20030053977A1, “Compositions comprising at least one aminated C5-C7 saccharide unit, and their use for the protection and/or repair of keratinous fibers” (priority 2001, published 2003)

How the values were obtained:
[1] = DSC doublet peak area of normal blonde hair after 12 heat cycles (lyxosylamine)
Experimental: Normal brown hair was processed with Revlon Realistic Professional Extra-Strength Relaxer for 30 min. at standard room temperature and humidity. The relaxed brown hair was subjected to six heat cycles, each heat cycle comprised applying the treatment solutions to the hair, blow-drying the hair, and applying heat to the hair for 1 min. in the form of the Professional Flat Iron (Solid Gold) set at “High” (130° C. to 135° C.). The hair was shampooed with a 10% solution of sodium laureth sulfate after each heat cycle, that is, after the heat application and prior to application of the treatment solution.
Normal blonde hair was subjected to 12 heat cycles, as described in Example 2, using a 0.1 wt % solution of D-Lyxosylamine.

[2] = DSC doublet peak area of bleached hair after twelve heat cycles (galactosamine)
Experimental: In the DSC experiments (using DSC-6 with Autosampler, Perkin Elmer), the hair was cut in small fragments (1-2 mm) and sealed in […] aluminum pans that were punctured prior to heating, resulting in a 50 micron laser-drilled opening in the pan lid. The hair was heated from 25° C. to 300° C. at a heating rate of 2^0° C./min. Three runs per section were performed. The results were averaged and standard deviations determined. Normal brown hair was processed with Revlon Realistic Professional Extra-Strength Relaxer for 30 min. at standard room temperature and humidity. The relaxed brown hair was subjected to six heat cycles, each heat cycle comprised applying the treatment solutions to the hair, blow-drying the hair, and applying heat to the hair for 1 min. in the form of the Professional Flat Iron (Solid Gold) set at “High” (130° C. to 135° C.). The hair was shampooed with a 10% solution of sodium laureth sulfate after each heat cycle, that is, after the heat application and prior to application of the treatment solution. Normal brown hair was bleached with […] Blonde Dimensions Dust-Free Bleached mixed with 40 volume (12% hydrogen peroxide). The bleached hair was then subject to twelve heat cycles. The heat treatment was as described in Example 2. The heat-treated hair was tested by DSC (Perkin Elmer Pyris 1 DSC) as described in Example 1. […]

[3] = Wet tensile strength (Dia-Stron) of relaxed hair after six heat cycles
Experimental: Normal brown hair was processed with Revlon Realistic Professional Extra-Strength Relaxer for 30 min. at standard room temperature and humidity. The relaxed brown hair was subjected to six heat cycles, each heat cycle comprised applying the treatment solutions to the hair, blow-drying the hair, and applying heat to the hair for 1 min. in the form of the Professional Flat Iron (Solid Gold) set at “High” (130° C. to 135° C.). The hair was shampooed with a 10% solution of sodium laureth sulfate after each heat cycle, that is, after the heat application and prior to application of the treatment solution. The treatment solutions included: a) deionized water; and b) 1% (w/v) glucosamine hydrochloride (Glucosamine HCl). The hair was tested for wet tensile strength using a Dia-Stron. The fibers were stretched in water at a rate of 10 mm/min., with 50 fibers per test. The results were averaged, and standard deviations determined. As used herein, “Young's modulus” corresponds to the initial resistance of the hair to the applied pulling force, “Work 25%” is the work required to extend the hair fiber to 25% of its length, “Break Extension” is the hair extension observed at the breaking point expressed at percent of its original length, and “Work-Break” is the work required to break the hair.

[4] = DSC doublet peak area (alpha-structure) of relaxed hair after six heat cycles
Experimental: In the DSC experiments (using DSC-6 with Autosampler, Perkin Elmer), the hair was cut in small fragments (1-2 mm) and sealed in […] aluminum pans that were punctured prior to heating, resulting in a 50 micron laser-drilled opening in the pan lid. The hair was heated from 25° C. to 300° C. at a heating rate of 2^0° C./min. Three runs per section were performed. The results were averaged and standard deviations determined. Normal brown hair was processed with Revlon Realistic Professional Extra-Strength Relaxer for 30 min. at standard room temperature and humidity. The relaxed brown hair was subjected to six heat cycles, each heat cycle comprised applying the treatment solutions to the hair, blow-drying the hair, and applying heat to the hair for 1 min. in the form of the Professional Flat Iron (Solid Gold) set at “High” (130° C. to 135° C.). The hair was shampooed with a 10% solution of sodium laureth sulfate after each heat cycle, that is, after the heat application and prior to application of the treatment solution. The treatment solutions included: a) deionized water; and b) 1% (w/v) glucosamine hydrochloride (Glucosamine HCl). The hair swatches from Example 2 were studied by differential scanning calorimetry (DSC). In this example, the hair was equilibrated at standard room temperature and humidity for 24 hours prior to testing.

[5] = DSC doublet peak area of bleached hair after 6 and 12 heat cycles
Experimental: In the DSC experiments (using DSC-6 with Autosampler, Perkin Elmer), the hair was cut in small fragments (1-2 mm) and sealed in […] aluminum pans that were punctured prior to heating, resulting in a 50 micron laser-drilled opening in the pan lid. The hair was heated from 25° C. to 300° C. at a heating rate of 2^0° C./min. Three runs per section were performed. The results were averaged and standard deviations determined. Normal brown hair was processed with Revlon Realistic Professional Extra-Strength Relaxer for 30 min. at standard room temperature and humidity. The relaxed brown hair was subjected to six heat cycles, each heat cycle comprised applying the treatment solutions to the hair, blow-drying the hair, and applying heat to the hair for 1 min. in the form of the Professional Flat Iron (Solid Gold) set at “High” (130° C. to 135° C.). The hair was shampooed with a 10% solution of sodium laureth sulfate after each heat cycle, that is, after the heat application and prior to application of the treatment solution. Normal brown hair was bleached using […] Blonding Gels Clear with 40 volume (12% hydrogen peroxide). The hair was subject to a total of twelve heat cycles. The heat treatment was as described in Example 2. The heat-treated hair was tested by DSC (Perkin Elmer Pyris 1 DSC) as described in Example 1. The hair was tested after Cycles 6 and 12. The treatment solutions included: a) deionized water, b) 0.001% (w/v) glucosamine hydrochloride solution, c) 0.010% (w/v) glucosamine hydrochloride solution, d) 0.100% (w/v) glucosamine hydrochloride solution, and e) 1.000% (w/v) glucosamine hydrochloride solution. Three DSC runs per treatment were performed, the results were averaged, and standard deviations determined.

[6] = 1% solution, relaxed hair, six heat cycles
[7] = relaxed hair after 6 cycles at 130° C. with 1% (w/v) solution, wet tensile, n = 50 fibers

## NC1OC[C@@H](O)[C@H](O)[C@@H]1O (stereo partly drawn) [D-Lyxosylamine]
[1]; 0.1 wt % solution, normal blonde hair, 12 heat cycles
  protection of the α-structure of hair as compared to the control solution (deionized water): protected the α-structure
[1]; normal blonde hair after 12 heat cycles with 0.1% solution
  Doublet Peak Area: 11.49 +/− 3.56 J/g hair

## Cl.N[C@H]1C(O)O[C@H](CO)[C@H](O)[C@@H]1O (some centres unmarked) [Galactosamine HCI, galactosamine hydrochloride]
[2]; 1% solution, bleached hair, 12 heat cycles
  doublet area as compared to the control solution (deionized water): significant increase
[2]; bleached hair after 12 heat cycles with 1% solution
  Doublet Peak Area: 41.52 +/− 3.94 J/g hair

## Cl.N[C@H]1C(O)O[C@H](CO)[C@@H](O)[C@@H]1O (some centres unmarked) [Glucosamine HCl, glucosamine hydrochloride]
[3]; [6]
  tensile properties as compared to the control treatment with deionized water: superior tensile properties
[3]; [7]
  Break Extension: 55.10 +/− 4.77%
  Work 25%: 419 +/− 111 J/m^2
  Work-Break: 1800 +/− 477 J/m^2
  Young's Modulus: 613 +/− 196 MN/m^2
[4]; [6]
  doublet area as compared to the control solution (deionized water): significant increase
[4]; relaxed hair after 6 heat cycles with 1% solution
  Doublet Peak Area: 23.11 +/− 7.09 J/g hair
[5]; 0.001% solution, 6 cycles
  Doublet Peak Area: 11.11 +/− 1.74 J/g hair
[5]; 0.001% solution, 12 cycles
  Doublet Peak Area: 14.74 +/− 5.95 J/g hair
[5]; 0.001% to 1.000% solutions, 6 and 12 heat cycles
  doublet area as compared to the control solution (deionized water): significant increase
[5]; 0.010% solution, 6 cycles
  Doublet Peak Area: 12.32 +/− 3.74 J/g hair
[5]; 0.010% solution, 12 cycles
  Doublet Peak Area: 21.66 +/− 12.88 J/g hair
[5]; 0.100% solution, 6 cycles
  Doublet Peak Area: 17.32 +/− 2.23 J/g hair
[5]; 0.100% solution, 12 cycles
  Doublet Peak Area: 20.92 +/− 1.73 J/g hair
[5]; 1.000% solution, 6 cycles
  Doublet Peak Area: 19.40 +/− 4.14 J/g hair
[5]; 1.000% solution, 12 cycles
  Doublet Peak Area: 22.98 +/− 6.57 J/g hair
